How the values were obtained:
[1] = molar heat capacity at constant pressure; details: 101.33 kPa, Vacuum adiabatic calorimetry
[2] = Molar enthalpy of transition or fusion; details: Crystal; Adiabatic calorimetry
[3] = for molar entropy: 101.33 kPa, Vacuum adiabatic calorimetry; for vapor or sublimation pressure: Closed cell (Static) method
[4] = molar enthalpy of vaporization or sublimation; details: 298.15 K; Liquid; Static calorimetry

CN=C=O [methyl isocyanate]
Details	Triple point temperature [K]	molar entropy [J/K/mol]	molar heat capacity at constant pressure [J/K/mol]	vapor or sublimation pressure [kPa]
[1], 14.71 K, Crystal	–	–	2.971	–
[1], 15.61 K, Crystal	–	–	3.494	–
[1], 16.68 K, Crystal	–	–	4.234	–
[1], 18.13 K, Crystal	–	–	5.318	–
[1], 19.93 K, Crystal	–	–	6.837	–
[1], 20 K, Crystal	–	–	6.9	–
[1], 21.81 K, Crystal	–	–	8.41	–
[1], 25.1 K, Crystal	–	–	11.4	–
[1], 27.08 K, Crystal	–	–	13.31	–
[1], 29.42 K, Crystal	–	–	15.5	–
[1], 30 K, Crystal	–	–	16.07	–
[1], 31.96 K, Crystal	–	–	17.95	–
[1], 34.72 K, Crystal	–	–	20.64	–
[1], 38.26 K, Crystal	–	–	23.96	–
[1], 40 K, Crystal	–	–	25.53	–
[1], 42.59 K, Crystal	–	–	27.81	–
[1], 47.01 K, Crystal	–	–	31.56	–
[1], 50 K, Crystal	–	–	34.07	–
[1], 51.57 K, Crystal	–	–	35.36	–
[1], 56.6 K, Crystal	–	–	39.11	–
[1], 60 K, Crystal	–	–	41.49	–
[1], 60.37 K, Crystal	–	–	41.76	–
[1], 62.3 K, Crystal	–	–	43.18	–
[1], 65.89 K, Crystal	–	–	45.61	–
[1], 70 K, Crystal	–	–	48.2	–
[1], 71.87 K, Crystal	–	–	49.37	–
[1], 78.77 K, Crystal	–	–	53.47	–
[1], 80 K, Crystal	–	–	54.31	–
[1], 85.79 K, Crystal	–	–	57.74	–
[1], 88.54 K, Crystal	–	–	59.08	–
[1], 90 K, Crystal	–	–	59.83	–
[1], 91.98 K, Crystal	–	–	60.67	–
[1], 94.33 K, Crystal	–	–	61.76	–
[1], 97.68 K, Crystal	–	–	63.18	–
[1], 100 K, Crystal	–	–	64.14	–
[1], 100.44 K, Crystal	–	–	64.31	–
[1], 102.2 K, Crystal	–	–	64.94	–
[1], 104.38 K, Crystal	–	–	65.94	–
[1], 109.48 K, Crystal	–	–	67.86	–
[1], 110 K, Crystal	–	–	68.03	–
[1], 112.6 K, Crystal	–	–	68.66	–
[1], 115.84 K, Crystal	–	–	69.87	–
[1], 118.15 K, Crystal	–	–	70.67	–
[1], 120 K, Crystal	–	–	71.25	–
[1], 120.45 K, Crystal	–	–	71.25	–
[1], 121.38 K, Crystal	–	–	71.63	–
[1], 126.84 K, Crystal	–	–	73.26	–
[1], 128.41 K, Crystal	–	–	73.55	–
[1], 130 K, Crystal	–	–	73.97	–
[1], 134.41 K, Crystal	–	–	75.06	–
[1], 134.59 K, Crystal	–	–	75.1	–
[1], 135.09 K, Crystal	–	–	75.27	–
[1], 136.89 K, Crystal	–	–	75.48	–
[1], 136.94 K, Crystal	–	–	75.65	–
[1], 140 K, Crystal	–	–	76.36	–
[1], 141.89 K, Crystal	–	–	76.82	–
[1], 141.97 K, Crystal	–	–	76.94	–
[1], 142.35 K, Crystal	–	–	76.96	–
[1], 146.02 K, Crystal	–	–	77.82	–
[1], 148.22 K, Crystal	–	–	78.32	–
[1], 149.33 K, Crystal	–	–	78.45	–
[1], 150 K, Crystal	–	–	78.7	–
[1], 151.79 K, Crystal	–	–	79.04	–
[1], 155.37 K, Crystal	–	–	79.91	–
[1], 156.39 K, Crystal	–	–	80	–
[1], 160 K, Crystal	–	–	81	–
[1], 160.19 K, Crystal	–	–	79.83	–
[1], 161.8 K, Crystal	–	–	81.59	–
[1], 163.79 K, Crystal	–	–	82.42	–
[1], 166.13 K, Crystal	–	–	83.6	–
[1], 167.44 K, Crystal	–	–	83.09	–
[1], 168.2 K, Crystal	–	–	82.26	–
[1], 169.15 K, Crystal	–	–	83.01	–
[1], 169.49 K, Crystal	–	–	82.34	–
[1], 170 K, Crystal	–	–	83.39	–
[1], 171.56 K, Crystal	–	–	83.51	–
[1], 172.5 K, Crystal	–	–	83.39	–
[1], 173.3 K, Crystal	–	–	84.35	–
[1], 180 K, Liquid	–	–	103.4	–
[1], 183.24 K, Liquid	–	–	103.39	–
[1], 186.5 K, Liquid	–	–	103.34	–
[1], 187.36 K, Liquid	–	–	103.26	–
[1], 190 K, Liquid	–	–	103.2	–
[1], 192.13 K, Liquid	–	–	103.09	–
[1], 196.44 K, Liquid	–	–	103.09	–
[1], 197.5 K, Liquid	–	–	102.93	–
[1], 198.47 K, Liquid	–	–	103	–
[1], 200 K, Liquid	–	–	103	–
[1], 201 K, Liquid	–	–	102.97	–
[1], 202.92 K, Liquid	–	–	103	–
[1], 210 K, Liquid	–	–	103	–
[1], 211.33 K, Liquid	–	–	103	–
[1], 219.74 K, Liquid	–	–	103	–
[1], 220 K, Liquid	–	–	103	–
[1], 228.75 K, Liquid	–	–	102.9	–
[1], 230 K, Liquid	–	–	103.1	–
[1], 238.24 K, Liquid	–	–	103.3	–
[1], 240 K, Liquid	–	–	103.4	–
[1], 247.64 K, Liquid	–	–	103.6	–
[1], 250 K, Liquid	–	–	103.8	–
[1], 257.03 K, Liquid	–	–	104.1	–
[1], 260 K, Liquid	–	–	104.3	–
[1], 266.32 K, Liquid	–	–	104.6	–
[1], 270 K, Liquid	–	–	104.9	–
[1], 275.54 K, Liquid	–	–	105.4	–
[1], 280 K, Liquid	–	–	105.8	–
[1], 284.64 K, Liquid	–	–	106.1	–
[1], 290 K, Liquid	–	–	106.7	–
[1], 293.07 K, Liquid	–	–	107	–
[1], 300 K, Liquid	–	–	107.7	–
[1], 301.23 K, Liquid	–	–	107.7	–
[3], 20 K, Crystal	–	2.44	–	–
[3], 30 K, Crystal	–	6.933	–	–
[3], 40 K, Crystal	–	12.87	–	–
[3], 50 K, Crystal	–	19.5	–	–
[3], 60 K, Crystal	–	26.39	–	–
[3], 70 K, Crystal	–	33.31	–	–
[3], 80 K, Crystal	–	40.14	–	–
[3], 90 K, Crystal	–	46.89	–	–
[3], 100 K, Crystal	–	53.42	–	–
[3], 110 K, Crystal	–	59.72	–	–
[3], 120 K, Crystal	–	65.78	–	–
[3], 130 K, Crystal	–	71.59	–	–
[3], 140 K, Crystal	–	77.17	–	–
[3], 150 K, Crystal	–	82.52	–	–
[3], 160 K, Crystal	–	87.67	–	–
[3], 170 K, Crystal	–	92.65	–	–
[3], 178.47 K, Liquid	–	–	–	0.024
[3], 180 K, Liquid	–	139.42	–	–
[3], 184.03 K, Liquid	–	–	–	0.036
[3], 189.11 K, Liquid	–	–	–	0.04666
[3], 190 K, Liquid	–	145	–	–
[3], 194.19 K, Liquid	–	–	–	0.06666
[3], 199.43 K, Liquid	–	–	–	0.1293
[3], 200 K, Liquid	–	150.29	–	–
[3], 204.46 K, Liquid	–	–	–	0.2053
[3], 209.49 K, Liquid	–	–	–	0.3106
[3], 210 K, Liquid	–	155.31	–	–
[3], 214.49 K, Liquid	–	–	–	0.4826
[3], 219.48 K, Liquid	–	–	–	0.7226
[3], 220 K, Liquid	–	160.1	–	–
[3], 224.44 K, Liquid	–	–	–	1.048
[3], 229.43 K, Liquid	–	–	–	1.5
[3], 230 K, Liquid	–	164.68	–	–
[3], 234.35 K, Liquid	–	–	–	2.12
[3], 239.21 K, Liquid	–	–	–	2.938
[3], 240 K, Liquid	–	169.08	–	–
[3], 244.16 K, Liquid	–	–	–	4.036
[3], 249.07 K, Liquid	–	–	–	5.45
[3], 250 K, Liquid	–	173.31	–	–
[3], 253.98 K, Liquid	–	–	–	7.286
[3], 258.88 K, Liquid	–	–	–	9.597
[3], 260 K, Liquid	–	177.38	–	–
[3], 263.72 K, Liquid	–	–	–	12.47
[3], 268.59 K, Liquid	–	–	–	16.03
[3], 270 K, Liquid	–	181.33	–	–
[3], 273.4 K, Liquid	–	–	–	20.31
[3], 278.1 K, Liquid	–	–	–	25.44
[3], 280 K, Liquid	–	185.16	–	–
[3], 282.71 K, Liquid	–	–	–	31.41
[3], 287.27 K, Liquid	–	–	–	38.39
[3], 290 K, Liquid	–	188.89	–	–
[3], 296.38 K, Liquid	–	–	–	56.22
[3], 297.07 K, Liquid	–	–	–	57.78
[3], 300 K, Liquid	–	192.52	–	–
[3], Crystal, Adiabatic calorimetry	178.46	–	–	–

Details	Molar enthalpy of transition or fusion [kcal/mol]	molar enthalpy [kcal/mol]
[2]	1.782	–
[4]	–	6.871

From the NIST ThermoML archive (doi:10.1016/j.jct.2012.10.011)
